Test system: skin surrounding the finger nail and the nail itself
Experiment: Acidifying effect of salicylic acid paste in a fingerstall on skin and finger nail
Assay type: in vivo
Details: paste 2% w/w in fingerstall, about 12 hours, vs empty fingerstall
Procedure: In a study designed to investigate the acidifying effect on the skin surrounding the finger nail as well as the nail itself a paste comprising salicylic acid at 2% w/w was inserted in a fingerstall. The fingerstall was applied over the top of the finger covering it tightly for about 12 hours. A completely empty stall covering another finger served as control for the same time period
Upon scratching the nail surface with a sharp metal edge device, nail fragments (keratinized cells) were easily released in contrast to the nail at the finger covered with an empty fingerstall where the nail plate surface was hard.

O=C(O)c1ccccc1O [salicylic acid]
appearance of the skin after exposure: softening and loosening up of the skin
effect on the nail plate surface: loosened up the superficial outer nail plate layer
